According to patent US20210071183A1, “ZINC ASSOCIATED TREATMENT FOR AND DIAGNOSIS OF CACHEXIA” (THE TRUSTEES OF COLUMBIA UNIVERSITY IN THE CITY OF NEW YORK, priority 2018, published 2021):
Where a SMILES comes first, the peptide text is derived from it. The star is where a group is joined. Cbz = O=C(OCc1ccccc1)*

Key:
Zip14 expression [1] = test: Zip14 qRT-PCR in human primary skeletal myoblasts treated with cytokines and signaling pathway inhibitors; assay type: cell-based; conditions: human primary muscle cells; for Zip14 expression after recombinant cytokine treatment: TNFα 50 ng/ml, TGFβ 10 ng/ml
Method: (§1) Treatment with cytokines and signaling pathway inhibitors: Murine C2C12 myoblasts and human primary skeletal myoblasts were serum-starved overnight, and then treated with or without inhibitors of the TGFβ/Smad, […] pathways, which are SB431542 (purchased from Thermo Fisher), CC401 (purchased from Thermo Fisher) and BAY 11-7085 (purchased from Enzo), respectively, followed by treatment with recombinant cytokines purchased from R&D Systems (recombinant mouse TNFα and TGFβ1 at 50 ng/ml and 10 ng/ml, respectively, for C2C12, recombinant human TNFα and TGFβ1 at 50 ng/ml and 10 ng/ml, respectively, for human primary skeletal myoblasts). Cells were pretreated with either vehicle (DMSO) control, or 10 μM of the respective pathway inhibitors for 1 hour, and then treated with TGFβ1 for 9 hours or TNFα for 3 hours before harvest. Cells with different treatments were harvested together for subsequent analysis.

Zip14 expression [2] = test: Zip14 qRT-PCR in murine C2C12 myoblasts treated with cytokines and signaling pathway inhibitors; assay type: cell-based, mouse; conditions: for Zip14 expression after recombinant cytokine treatment: murine C2C12 myoblasts, TNFα 50 ng/ml, TGFβ 10 ng/ml
Method: as §1

4T1 tumor-bearing mice = test: Zinc chelator injection in 4T1 tumor-bearing mice; assay type: in vivo, mouse; conditions: 150 mg/kg body weight daily from 7 days post-tumor cell injection, 4 weeks
Method: The effects of zinc chelator injection were analyzed using healthy or C26m2 tumor bearing mice. Excess zinc supplementation exacerbates muscle wasting, while zinc chelation reduces muscle wasting in tumor-bearing mice. […] (A-B) Healthy or C26m2 tumor bearing mice of the indicated genotypes (Zip14 WT or KO) were either treated with regular or zinc-enriched water (25 mM) from the day of tumor cell injection and muscles were collected after […]. Body weight analysis (A) and relative MuRF1/MAFBx mRNA expression levels indicative of muscle wasting (B) are shown. C. Mice were injected with 4T1 tumor cells and were divided into 3 groups, one was provided with regular diet with 86 ppm zinc, second group with 1000 ppm zinc-supplemented diet (high zinc diet) and third group with regular diet with 86 ppm zinc but with zinc chelator injected daily with Sodium diethyldithiocarbamate trihydrate (DEDTC) at 150 mg/kg body weight injected 7 days post-tumor cell injection. Mice were sacrificed after 4 weeks post-tumor cell injection. In all experiments, n=3-8 per group. ns, not significant. *p≤0.05, **p≤0.01, ***p≤0.001 and ****p≤0.0001.

[3] = system: myosin heavy chain (MyHC); test: Zinc and MG132 treatment of differentiated C2C12 muscle cells (immunoblot of myofibrillar proteins); assay type: cell-based, mouse
Method: (§2) Zinc and MG132 treatment of muscle cells: 3-day differentiated C2C12 cells were cultured with 50 μM ZnCI2 in differentiation medium for 24 hours. Cells were then used for immunofluorescence staining, gene expression analysis and immunoblot analysis. For MG-132 (benzyloxycarbonylleucyl-leucyl-leucine aldehyde, a proteasome inhibitor) treatment, 3-day differentiated C2C12 cells expressing Zip14 (Adeno-Zip14) were treated with 50 μM ZnCI2 for 24 hours, and then treated with either vehicle (DMSO) or MG132 (50 μM) for 3 hours prior to harvest for immunoblot analysis.
Subcellular fractionation of differentiated C2C12 muscle cells: Fractionation of soluble and myofibrillar components was performed. Differentiated C2C12 muscle cells were collected in cold lysis buffer (20 mM of Tris-HCl pH 7.2, 5 mM of EGTA, 100 mM of KCl, 1% Triton X-100, and 1× protease and phosphatase inhibitor cocktail), and lysed by gentle agitation at 4° C. for 1 h. After centrifugation at 3,000×g for 30 mins at 4° C., the cytosolic fraction (supernatant) was collected and stored in −80° C. The pellet (myofibrils) was washed twice with wash buffer (20 mM of Tris-HCl, pH 7.2, 100 mM of KCl, and 1 mM of DTT). After centrifugation at 3,000×g for 10 mins at 4° C., myofibrillar fraction was extracted in ice-cold extraction buffer (0.6 M of KCl, 1% Triton X-100, 2 mM of EDTA, 1 mM of DTT and 1× protease and phosphatase inhibitor cocktail) with shaking at 4° C. The purified myofibrillar fraction was collected after centrifugation for 3,000×g at 4° C. and stored in −80° C. until further use.

C2C12 cells = test: Cell viability assay (MTS, cleaved caspase-3); assay type: cell-based; conditions: Zip14-expressing cells; 50 μM ZnCl2 24 h
Method: Cell viability assay: Viability of C2C12 cells was determined by MTS assay (a cell proliferation assay based on a colorimetric method for quantification of viable cells in proliferation and cytotoxicity assay) using CellTiter 96® Aqueous One Solution Cell Proliferation Assay kit (purchased from Promega) containing tetrazolium compound. C2C12 cells infected with Adeno-GFP control or Adeno-Zip14 were plated in growth media and differentiated. Cells were treated with 50 μM of ZnCl2 for 24 h. Cell viability was measured by adding 100 μl of growth medium without phenol red to each well after aspirating media from the wells. 20 μl of CellTiter 96 AGueous One Solution Reagent was added to each well. After 1 hour of incubation at 37° C. in CO2 incubator, the amount of soluble formazan was determined by absorbance at 450 nm. Undifferentiated and differentiated C2C12 cells were collected for immunoblot analysis probing for cleaved-caspase-3 expression to assess cell-death. C2C12 cells treated with the indicated doses of doxorubicin (doxo) (purchased from Sigma) served as positive control for both types of viability assays.

[4] = system: Zip14-expressing myoblasts; test: Muscle differentiation assays with zinc; assay type: cell-based, mouse
Method: Adenoviral infection: C2C12 cells or mouse primary myoblasts were cultured overnight. C2C12 cells were infected with adenovirus expressing either GFP (green fluorescent protein) control (Adeno-GFP) or mouse Zip14 (Adeno-Zip14, purchased from Vector Biolabs). Primary myoblasts were infected with adenovirus expressing either GFP control (Adeno-GFP) or mouse Zip14 (Adeno-Zip14).
Muscle differentiation assays: Differentiation was initiated after adenoviral infection by switching the growth medium to differentiation medium (DMEM containing 2% horse serum and 5 μg/ml of insulin for C2C12 cells; DMEM containing 2% horse serum without insulin for primary myoblasts) the day after infection. Differentiation medium was changed at designated time-points.
as §2

[5] = Food and water intake, behavioral coordination, liver and kidney function with zinc-supplemented water; assay type: in vivo, mouse; conditions: C26m2 tumor-bearing mice with excess zinc supplementation
Method: (§3) Zinc-supplemented water treatment for mice: ZnS04 solution was purchased from Sigma. Zip14 WT and KO mice were given either regular water or zinc-supplemented drinking water (25 mM ZnS04 in their drinking water). Zinc water was started from the day of tumor injection in the tumor-bearing group and in matched uninjected controls, which continued until the animals were euthanized at 15 days. Tumors were not resected because cachectic symptoms started to develop early and were visible between 8-10 days in the tumor-bearing Zip14 WT group of mice on zinc-enriched water.
Behavioral coordination tests in mice: Rotamex-5 (Columbus Instruments) with a rod diameter of 3 cm, was used for testing coordination in mice. In this setup, automatic fall detection is implemented within each lane by a series of photocells placed above the rotating rod. The speed of the rotating rod is programmed for either constant or accelerated modes. […] Latency to fall is detected with 0.1 second temporal resolution. […] For each mouse, an average of 3 runs are recorded, with 5 minutes rest between each run. The speed that the rod is spinning at when the mouse falls is measured in RPMs. The time it takes for the mouse to fall is measured in seconds. […] When the mice fall off the speed of the rod and amount of time the mouse was on the rod are recorded. […]

[6] = system: C26m2 tumor-bearing Zip14 WT and KO mice; test: Zinc-supplemented water treatment for mice; assay type: in vivo, mouse
Method: as §3

[7] = Zip14-wild-type tumor-bearing mice (C26m2), 25 mM ZnSO4 drinking water
[8] = Zip14-expressing myotubes treated with zinc (50 μM) for 24 hours

## CC(C)(C)c1ccc(S(=O)(=O)/C=C/C#N)cc1 [Bay11-7085]
Zip14 expression [1]; TNFα 50 ng/ml 3 hours, 10 μM inhibitor pretreated 1 hour, qRT-PCR
  Zip14 expression (TNFα-induced): blocked
Zip14 expression [2]; murine C2C12 cells, TNFα 50 ng/ml 3 hours, 10 μM inhibitor pretreated 1 hour, qRT-PCR
  Zip14 expression (TNFα-induced): blocked

## CCN(CC)C(=S)[S-].O.O.O.[Na+] [DEDTC, Sodium diethyldithiocarbamate trihydrate]
4T1 tumor-bearing mice
  muscle wasting: reduces

## CC(C)C[C@@H](C=O)NC(=O)[C@H](CC(C)C)NC(=O)[C@H](CC(C)C)NC(=O)OCc1ccccc1 [MG132, benzyloxycarbonylleucyl-leucyl-leucine aldehyde, reference compound] (Cbz-Leu-Leu-Leu-aldehyde)
[3]; Zip14-expressing 3-day differentiated C2C12, 50 μM ZnCl2 24 h, MG132 50 μM 3 hours prior to harvest
  MyHC loss: could be blocked

## NC(=O)c1ccc(-c2nc(-c3ccc4c(c3)OCO4)c(-c3ccccn3)[nH]2)cc1 [SB431542]
Zip14 expression [1]; TGFβ 10 ng/ml 9 hours, 10 μM inhibitor pretreated 1 hour, qRT-PCR
  Zip14 expression (TGFβ-induced): blocked
Zip14 expression [2]; murine C2C12 cells, TGFβ 10 ng/ml 9 hours, 10 μM inhibitor pretreated 1 hour, qRT-PCR
  Zip14 expression (TGFβ-induced): blocked

## [Zn] [zinc]
C2C12 cells
  viability: no loss
[4]; Zip14-expressing C2C12 and primary myoblasts, 50 μM ZnCl2
  differentiation of myoblasts (MyHC expression, morphology): selectively blocked
[4]; Zip14-expressing C2C12 myoblasts, 50 μM ZnCl2 24 hours, qRT-PCR
  MyoD, Mef2c, and Myf5 transcription: transcriptional repression
[5]
  food or water intake, behavior, liver or kidney function: No changes
[6]; [7]
  body weight loss: substantial acceleration
  muscle atrophy: increase
[6]; absence of tumors, Zip14-wild-type and knockout mice, 25 mM ZnSO4 drinking water
  growth kinetics: no detrimental effect
[6]; tumor-bearing mice, zinc-enriched water (25 mM) or 1000 ppm zinc-supplemented diet
  muscle wasting: exacerbates
[3]; [8]
  MyHC protein: striking loss
  skeletal actin, tropomyosin, troponin, desmin and myosin light chain (MyLC) protein: remained unchanged

## TGFβ: recombinant mouse or human TGFβ1 cytokine from R&D Systems
Zip14 expression [1]
  Zip14 expression after recombinant cytokine treatment: significantly induced
Zip14 expression [2]
  Zip14 expression after recombinant cytokine treatment: significantly induced

## TNFα
Zip14 expression [1]
  Zip14 expression after recombinant cytokine treatment: significantly induced
Zip14 expression [2]
  Zip14 expression after recombinant cytokine treatment: significantly induced
